Laboratory results published in patent US8710298B2, “Heat stable variants of plant adenosine diphosphate glucose pyrophosphorylase small subunit” (University of Florida Research Foundation, Inc., priority 2003, dated 2014).

Assays:
[1] = target: T1, maize endosperm ADP-glucose pyrophosphorylase (AGP) variant QTCL (small subunit BT2 with tyrosine 36 to cysteine and glutamine inserted between serine 34 and th (Zea mays, UniProt P55241+Q947C0, INS34Q/Y36C)); experiment: Activation and inhibition (Assay C, forward direction), QTCL AGP; type: biochemical; details: QTCL; effector varied 0-3 mM, 37° C., 10 minutes
T1 construct: purified heterotetramer
T1 sequence (Q947C0 with tags, fused parts or gaps INS34Q/Y36C): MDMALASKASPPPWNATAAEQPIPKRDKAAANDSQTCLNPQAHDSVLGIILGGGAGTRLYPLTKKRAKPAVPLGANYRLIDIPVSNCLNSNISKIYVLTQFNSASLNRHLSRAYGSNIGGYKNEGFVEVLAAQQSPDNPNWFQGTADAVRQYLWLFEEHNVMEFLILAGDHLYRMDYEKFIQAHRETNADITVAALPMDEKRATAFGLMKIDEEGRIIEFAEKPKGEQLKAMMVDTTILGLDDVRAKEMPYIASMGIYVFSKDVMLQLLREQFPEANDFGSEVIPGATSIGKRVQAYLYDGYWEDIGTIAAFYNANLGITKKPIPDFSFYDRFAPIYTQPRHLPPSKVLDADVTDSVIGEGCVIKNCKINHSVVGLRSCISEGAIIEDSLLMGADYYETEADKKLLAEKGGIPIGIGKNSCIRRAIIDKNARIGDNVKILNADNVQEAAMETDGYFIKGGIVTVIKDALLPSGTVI
T1 sequence (P55241 46-516): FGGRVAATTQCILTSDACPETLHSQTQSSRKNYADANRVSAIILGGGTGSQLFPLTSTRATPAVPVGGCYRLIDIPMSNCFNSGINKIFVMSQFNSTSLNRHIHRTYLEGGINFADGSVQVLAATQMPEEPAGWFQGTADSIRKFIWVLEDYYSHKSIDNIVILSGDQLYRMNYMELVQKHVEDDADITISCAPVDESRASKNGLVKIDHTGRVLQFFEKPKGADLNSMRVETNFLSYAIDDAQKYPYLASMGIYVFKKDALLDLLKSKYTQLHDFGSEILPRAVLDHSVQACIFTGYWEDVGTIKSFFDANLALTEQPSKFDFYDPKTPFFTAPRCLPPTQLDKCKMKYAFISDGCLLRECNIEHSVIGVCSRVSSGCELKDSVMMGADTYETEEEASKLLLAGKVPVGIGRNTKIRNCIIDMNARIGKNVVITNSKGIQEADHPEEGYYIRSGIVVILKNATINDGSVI
Procedure: (§1) The QTCL construct (SEQ ID NO:7) encodes a maize AGP small subunit protein (SEQ ID NO:8) having a change from a tyrosine at amino acid position 36 to a cysteine and an insertion of a glutamine between the serine at amino acid position 34 and the threonine at amino acid position 35.
(§2) The 3-Phosphoglyceric acid (3-PGA) was added at varying amounts, as specified. When varied, the substrates ranged from 0-5 mM. Reactions were terminated after 5 minutes by boiling in a water bath for 1 minute. […] The change in absorbance between the blank and the reaction was used to calculate the amount to PPi produced for each sample. All reactions were linear with time and enzyme concentration. All assay tubes were pre-warmed to 37° C. prior to assaying and were initiated by the addition of enzyme.

[2] = system: maize endosperm ADP-glucose pyrophosphorylase (AGP) variant QTCL (small subunit BT2 with tyrosine 36 to cysteine and glutamine inserted between serine 34 and …); experiment: as above; type: biochemical, maize (Zea mays); details: QTCL compared to wild type AGP
Procedure: as §1, §2

[3] = target: T2, maize endosperm ADP-glucose pyrophosphorylase (AGP), wild type (small subunit BT2 WT-STYL, SEQ ID NO: 2, with wild type large subunit Shrunken-2) (Zea mays, UniProt P55241+Q947C0); details: effector varied 0-3 mM, 37° C., 10 minutes
T2 sequence (Q947C0 1-475): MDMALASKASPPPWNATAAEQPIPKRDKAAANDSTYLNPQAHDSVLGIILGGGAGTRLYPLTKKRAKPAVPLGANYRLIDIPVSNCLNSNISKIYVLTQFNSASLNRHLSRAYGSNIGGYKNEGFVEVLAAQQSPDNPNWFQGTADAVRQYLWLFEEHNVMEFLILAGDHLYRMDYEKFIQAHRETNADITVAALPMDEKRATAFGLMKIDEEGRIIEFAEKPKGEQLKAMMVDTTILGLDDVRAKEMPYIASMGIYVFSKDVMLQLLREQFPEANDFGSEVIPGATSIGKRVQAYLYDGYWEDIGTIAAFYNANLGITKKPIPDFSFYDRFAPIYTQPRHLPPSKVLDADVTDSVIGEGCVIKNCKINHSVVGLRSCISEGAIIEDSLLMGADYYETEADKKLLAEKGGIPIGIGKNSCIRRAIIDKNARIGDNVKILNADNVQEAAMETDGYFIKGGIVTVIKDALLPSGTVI
T2 sequence (P55241 46-516): T1 sequence (P55241 46-516)
Procedure: (§3) Protein inductions were as described by Greene and Hannah (1998) with a few modifications.
as §2
To determine the extent of activation with or with out 3-PGA, 0.1 or 2.0 μg respectively, of purified maize wt-AGP was incubated for 12.5 minutes in the forward assay. To determine the activation constant for the maize wt AGP, 0.2 μg of purified maize wt-AGP was incubated for 12.5 minutes in the forward assay. 3-PGA concentrations ranged from 0-5.0 mM. Curves were fit using Graph Pad Prism using non-linear regression.

[4] = target: T1, maize endosperm ADP-glucose pyrophosphorylase (AGP) variant QTCL (small subunit BT2 with tyrosine 36 to cysteine and glutamine inserted between serine 34 and th); experiment: Enzyme kinetics (substrates), forward reaction, purified QTCL AGP; type: biochemical
Procedure: The QTCL construct (SEQ ID NO:7) encodes a maize AGP small subunit protein (SEQ ID NO:8) having a change from a tyrosine at amino acid position 36 to a cysteine and an insertion of a glutamine between the serine at amino acid position 34 and the threonine at amino acid position 35. […] The mutations were verified by sequence analysis.
as §3, §2
The QTCL mutant and wild type enzymes were purified from E. coli as described in the materials and methods.

[5] = target: T2, maize endosperm ADP-glucose pyrophosphorylase (AGP), wild type (small subunit BT2 WT-STYL, SEQ ID NO: 2, with wild type large subunit Shrunken-2)
Procedure: E. coli strain AC70R1-504, which lacks the functional AGP gene and cannot synthesize glycogen, was transformed with both pMoncSh2 and pMoncBt2 (plasmids containing the large and small subunit of wt-AGP respectively). An overnight culture was grown with constant shaking at 225 rpm at 37° C. in LB media containing 75 ug/ml spectinomycin and 50 μg/ml kanamycin. An aliquot of the overnight culture (12.5 ml) was used to inoculate a 1 L flask containing the same media. The 1 L flask was grown until the OD600 reached 0.5-0.6. The cultures were cooled to room temperature and protein expression was induced by the addition of 0.2 mM isopropyl-beta-D-thiogalactoside (IPTG) and 0.02 mg/ml nalidixic acid. Expression continued for 3 hours at room temperature with constant shaking. Cells were centrifuged at 8000×g supernatant removed and stored as pellets at −80° C.
The 3-Phosphoglyceric acid (3-PGA) was added at varying amounts, as specified. When varied, the substrates ranged from 0-5 mM. Reactions were terminated after 5 minutes by boiling in a water bath for 1 minute. […] The change in absorbance between the blank and the reaction was used to calculate the amount to PPi produced for each sample. All reactions were linear with time and enzyme concentration. All assay tubes were pre-warmed to 37° C. prior to assaying and were initiated by the addition of enzyme. […]

Row | Compound | Ka (3-PGA) [1] | Ka for the QTCL enzyme, fold higher than wild type AGP [2] | Ka (3-PGA) [3] | Vmax (ATP) ([4]; 10 mM 3-PGA, 37° C., 10 minutes) [µmol/min/mg] | Km ([4]; read-out: Km for ATP, 10 mM 3-PGA, 37° C., 10 minutes) [µM] | Vmax (ATP) ([5]; forward reaction, 10 mM 3-PGA, 37° C., 10 minutes) [µmol/min/mg] | Km ([5]; read-out: Km for ATP, forward reaction, 10 mM 3-PGA, 37° C., 10 minutes) [µM]
1 | O=C(O)[C@H](O)COP(=O)(O)O [3-PGA, 3-phosphoglyceric acid] | 1.08 ± 0.13 | approximately 2 -fold | 0.57 ± 0.055 | – | – | – | –
2 | Nc1ncnc2c1ncn2[C@@H]1O[C@H](COP(=O)(O)OP(=O)(O)OP(=O)(O)O)[C@@H](O)[C@H]1O [ATP] | – | – | – | 23.4 ± 0.53 | 140 ± 10 | 9.25 ± 0.32 | 66 ± 10
